Key:
[1] = target: T1, LhcSR3 (Chlamydomonas reinhardtii, UniProt P0DO19); assay: in vitro reconstitution, HPLC pigment analysis, Soret spectral deconvolution; format: binding
T1 construct: gene LHCSR3.1; precursor 259 residues
T1 sequence (P0DO19 46-259 limits assumed): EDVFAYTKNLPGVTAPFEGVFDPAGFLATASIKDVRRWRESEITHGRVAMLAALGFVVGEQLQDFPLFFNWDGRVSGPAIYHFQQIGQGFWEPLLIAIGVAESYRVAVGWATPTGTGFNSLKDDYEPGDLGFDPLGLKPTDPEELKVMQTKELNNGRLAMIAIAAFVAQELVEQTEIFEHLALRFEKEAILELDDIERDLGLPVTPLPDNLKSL

[2] = target: T1, LhcSR3; assay: […]-DCCD labelling, SDS-PAGE autoradiography, densitometry; format: binding; conditions: covalent; labelled compound; protonatable residues
[3] = refolded with Chl a, Chl b, lutein and violaxanthin (LV complex), sites L1/L2 proposed

SMILES	in vitro reconstitution, HPLC pigment analysis, Soret spectral deconvolution [1, 3]	other results
CC1=C(/C=C/C(C)=C/C=C/C(C)=C/C=C/C=C(C)/C=C/C=C(C)/C=C/C2=C(C)C[C@@H](O)CC2(C)C)C(C)(C)C[C@H](O)C1 [zeaxanthin]	–	in vitro reconstitution, HPLC pigment analysis, Soret spectral deconvolution ([1]; refolded with zeaxanthin present besides lutein and violaxanthin (LVZ complex), several sites): implying that Zea entered the three sites, although to different extents
CC1=C[C@H](O)CC(C)(C)[C@H]1/C=C/C(C)=C/C=C/C(C)=C/C=C/C=C(C)/C=C/C=C(C)/C=C/C1=C(C)C[C@@H](O)CC1(C)C [lutein]	lutein and violaxanthin bound to the apoprotein	–
CC(/C=C/C=C(C)/C=C/[C@@]12O[C@]1(C)C[C@@H](O)CC2(C)C)=C\C=C\C=C(C)\C=C\C=C(C)\C=C\[C@@]12O[C@]1(C)C[C@@H](O)CC2(C)C [violaxanthin]	lutein and violaxanthin bound to the apoprotein	–
C(=NC1CCCCC1)=NC1CCCCC1 [DCCD]	–	14C-DCCD labelling, SDS-PAGE autoradiography, densitometry [2]: LhcSR3 revealed very efficient binding of DCCD, higher than plant CP29

From paper PMC3022525, “Analysis of LhcSR3, a Protein Essential for Feedback De-Excitation in the Green Alga Chlamydomonas reinhardtii” (PLoS Biology, 2011)
